This passage reports target mRNA knockdown results from the OligoGym collection.

“And” between values parts separate entries of the source, which are not always exact repeats. Equal values may be shown once. HELM strings list units from the 5' end as sugar, base in round brackets, then linkage (d deoxyribose, r ribose, m 2'-O-methyl, p phosphodiester). Strings are as the collection lists them, not checked against the first reports. ss, as = sense and antisense strand; [lna] = locked nucleic acid (LNA); [fl2r] = 2'-fluoro
Further: test system not given here.

The conditions of the data set: siRNA.
As for “RNA1{r(A)p.r(A)p.r(C)p.r(U)p.r(C)p.[fl2r](U)p.r(A)p.r(C)p.[fl2r](U)p.r(G)p.[fl2r](U)p.r(G)p.r(G)p.r(A)p.r(G)p.r(U)p.r(C)p.r(G)p.r(G)p.r(T)p.r(T)}|RNA2{r(C)p.r(C)p.r(G)p.r(A)p.r(C)p.r(U)p.r(C)p.[fl2r](C)p.r(A)p.[fl2r](C)p.r(A)p.r(G)p.[fl2r](U)p.r(A)p.r(G)p.r(A)p.r(G)p.r(U)p.r(U)p.r(T)p.r(T)}$$$RNA1{StrandType:ss}|RNA2{StrandType:as}$”, the target mRNA knockdown came to 65%.
The same measure for “RNA1{[fl2r](A)p.r(G)p.[fl2r](G)p.r(A)p.[fl2r](G)p.r(A)p.[fl2r](C)p.r(C)p.[fl2r](G)p.r(U)p.[fl2r](G)p.r(A)p.[fl2r](C)p.r(A)p.[fl2r](U)p.r(U)p.[fl2r](U)p.r(C)p.[fl2r](G)p.r(T)p.r(T)}|RNA2{r(C)p.[fl2r](G)p.r(A)p.r(A)p.r(A)p.r(U)p.[fl2r](G)p.r(U)p.r(C)p.r(A)p.r(C)p.[fl2r](G)p.[fl2r](G)p.r(U)p.r(C)p.r(U)p.r(C)p.r(C)p.r(U)p.r(T)p.r(T)}$$$RNA1{StrandType:ss}|RNA2{StrandType:as}$”: 33%.
The same measure for “RNA1{r(A)p.r(G)p.r(G)p.r(A)p.r(G)p.r(A)p.r(C)p.r(C)p.r(G)p.[fl2r](U)p.r(G)p.r(A)p.[fl2r](C)p.r(A)p.r(U)p.r(U)p.r(U)p.r(C)p.r(G)p.r(T)p.r(T)}|RNA2{r(C)p.r(G)p.r(A)p.r(A)p.r(A)p.[fl2r](U)p.r(G)p.r(U)p.r(C)p.[fl2r](A)p.r(C)p.r(G)p.r(G)p.r(U)p.r(C)p.r(U)p.r(C)p.r(C)p.r(U)p.r(T)p.r(T)}$$$RNA1{StrandType:ss}|RNA2{StrandType:as}$”: 69%.
The same measure for “RNA1{m(A)p.r(A)p.m(A)p.r(C)p.m(G)p.r(A)p.m(G)p.r(A)p.m(G)p.r(A)p.m(G)p.r(C)p.m(C)p.r(C)p.m(A)p.r(C)p.m(C)p.r(U)p.m(U)p.r(T)p.r(T)}|RNA2{r(A)p.r(A)p.r(G)p.r(G)p.r(U)p.r(G)p.r(G)p.r(G)p.m(C)p.r(U)p.m(C)p.r(U)p.m(C)p.r(U)p.m(C)p.r(G)p.r(U)p.r(U)p.r(U)p.r(T)p.r(T)}$$$RNA1{StrandType:ss}|RNA2{StrandType:as}$”: 37%.
Substance “RNA1{r(A)p.r(A)p.m(C)p.r(A)p.r(G)p.r(U)p.r(C)p.r(C)p.r(U)p.m(U)p.r(A)p.r(G)p.r(C)p.m(U)p.r(A)p.r(C)p.r(G)p.r(C)p.m(U)p.r(T)p.r(T)}|RNA2{r(A)p.r(G)p.r(C)p.r(G)p.m(U)p.r(A)p.r(G)p.r(C)p.m(U)p.r(A)p.r(A)p.r(G)p.r(G)p.r(A)p.r(C)p.m(U)p.r(G)p.r(U)p.r(U)p.r(T)p.r(T)}$$$RNA1{StrandType:ss}|RNA2{StrandType:as}$” came in with a target mRNA knockdown of 85%.
As for “RNA1{m(G)p.m(C)p.m(A)p.m(G)p.m(C)p.m(A)p.m(C)p.m(G)p.m(A)p.m(C)p.m(U)p.m(U)p.m(C)p.m(U)p.m(U)p.m(C)p.m(A)p.m(A)p.m(G)p.r(T)p.r(T)}|RNA2{m(C)p.m(U)p.m(U)p.m(G)p.m(A)p.m(A)p.m(G)p.m(A)p.m(A)p.m(G)p.m(U)p.m(C)p.m(G)p.m(U)p.m(G)p.m(C)p.m(U)p.m(G)p.m(C)p.r(T)p.r(T)}$$$RNA1{StrandType:ss}|RNA2{StrandType:as}$”, the figure is 0%; as for “RNA1{r(A)p.r(G)p.r(G)p.r(A)p.r(G)p.r(A)p.r(C)p.r(C)p.r(G)p.[fl2r](U)p.r(G)p.r(A)p.[fl2r](C)p.r(A)p.r(U)p.r(U)p.r(U)p.r(C)p.r(G)p.r(T)p.r(T)}|RNA2{r(C)p.r(G)p.r(A)p.r(A)p.r(A)p.[fl2r](U)p.r(G)p.r(U)p.r(C)p.r(A)p.r(C)p.r(G)p.r(G)p.r(U)p.r(C)p.r(U)p.r(C)p.r(C)p.r(U)p.r(T)p.r(T)}$$$RNA1{StrandType:ss}|RNA2{StrandType:as}$”, 72%; as for “RNA1{m(U)p.r(C)p.m(C)p.r(C)p.m(U)p.r(U)p.m(C)p.r(C)p.m(A)p.r(C)p.m(C)p.r(G)p.m(C)p.r(C)p.m(A)p.r(U)p.m(A)p.r(U)p.m(U)p.r(T)p.r(T)}|RNA2{r(A)p.r(A)p.r(U)p.r(A)p.r(U)p.r(G)p.r(G)p.r(C)p.r(G)p.r(G)p.r(U)p.r(G)p.r(G)p.r(A)p.r(A)p.r(G)p.r(G)p.r(G)p.r(A)p.r(T)p.r(T)}$$$RNA1{StrandType:ss}|RNA2{StrandType:as}$”, 11%.
As for “RNA1{m(A)p.r(G)p.m(U)p.r(C)p.m(C)p.r(C)p.m(U)p.r(G)p.m(G)p.r(A)p.m(G)p.r(C)p.m(C)p.r(U)p.r(U)p.r(A)p.m(A)p.r(A)p.m(C)p.r(T)p.r(T)}|RNA2{r(G)p.r(U)p.r(U)p.r(U)p.r(A)p.r(A)p.r(G)p.r(G)p.r(C)p.r(U)p.r(C)p.r(C)p.r(A)p.r(G)p.r(G)p.r(G)p.r(A)p.r(C)p.r(U)p.r(T)p.r(T)}$$$RNA1{StrandType:ss}|RNA2{StrandType:as}$”, the figure is 68%.
As for “RNA1{[lna](A)p.r(U)p.r(C)p.r(U)p.r(G)p.r(A)p.r(A)p.r(G)p.r(A)p.r(A)p.r(G)p.r(G)p.r(A)p.r(G)p.r(A)p.r(A)p.r(A)p.r(A)p.r(A)p.[lna](T)p.[lna](T)}|RNA2{r(U)p.r(U)p.r(U)p.r(U)p.r(U)p.r(C)p.r(U)p.r(C)p.r(C)p.r(U)p.r(U)p.r(C)p.r(U)p.r(U)p.r(C)p.r(A)p.r(G)p.r(A)p.r(U)p.[lna](T)p.[lna](T)}$$$RNA1{StrandType:ss}|RNA2{StrandType:as}$”, the figure is 93% and 95%; as for “RNA1{m(U)p.r(U)p.m(A)p.r(C)p.m(A)p.r(A)p.m(A)p.r(G)p.m(G)p.r(A)p.m(U)p.r(C)p.m(U)p.r(C)p.m(C)p.r(U)p.m(C)p.r(C)p.m(C)p.r(T)p.r(T)}|RNA2{r(G)p.r(G)p.r(G)p.r(A)p.r(G)p.r(G)p.r(A)p.r(G)p.r(A)p.r(U)p.m(C)p.m(C)p.r(U)p.r(U)p.r(U)p.r(G)p.r(U)p.r(A)p.r(A)p.r(T)p.r(T)}$$$RNA1{StrandType:ss}|RNA2{StrandType:as}$”, 57%; as for “RNA1{r(G)p.r(C)p.r(U)p.r(U)p.m(U)p.r(A)p.r(A)p.r(G)p.r(G)p.r(A)p.r(A)p.r(C)p.m(U)p.r(G)p.r(G)p.r(A)p.r(A)p.r(G)p.r(G)p.r(T)p.r(T)}|RNA2{r(C)p.r(C)p.r(U)p.r(U)p.r(C)p.m(C)p.r(A)p.r(G)p.r(U)p.r(U)p.r(C)p.r(C)p.r(U)p.m(U)p.r(A)p.r(A)p.r(A)p.r(G)p.r(C)p.r(T)p.r(T)}$$$RNA1{StrandType:ss}|RNA2{StrandType:as}$”, 37%.
“RNA1{r(A)p.r(G)p.r(A)p.r(A)p.r(A)p.r(C)p.r(G)p.m(C)p.r(A)p.r(G)p.m(U)p.r(A)p.r(A)p.r(U)p.r(C)p.r(C)p.r(G)p.r(G)p.r(A)p.r(T)p.r(T)}|RNA2{r(U)p.r(C)p.r(C)p.r(G)p.r(G)p.r(A)p.r(U)p.m(U)p.r(A)p.r(C)p.m(U)p.r(G)p.r(C)p.r(G)p.r(U)p.r(U)p.r(U)p.r(C)p.r(U)p.r(T)p.r(T)}$$$RNA1{StrandType:ss}|RNA2{StrandType:as}$” showed a target mRNA knockdown of 81%.
The same measure for “RNA1{r(A)p.r(A)p.r(C)p.r(A)p.r(G)p.r(C)p.r(C)p.r(U)p.r(U)p.r(A)p.r(C)p.r(C)p.r(C)p.r(C)p.r(G)p.r(A)p.r(U)p.r(U)p.r(C)p.r(T)p.r(T)}|RNA2{r(G)p.r(A)p.r(A)p.r(U)p.r(C)p.r(G)p.r(G)p.r(G)p.r(G)p.m(U)p.r(A)p.r(A)p.r(G)p.r(G)p.r(C)p.r(U)p.r(G)p.r(U)p.r(U)p.r(T)p.r(T)}$$$RNA1{StrandType:ss}|RNA2{StrandType:as}$”: 69%; for “RNA1{r(A)p.r(C)p.r(G)p.r(U)p.m(C)p.r(A)p.r(C)p.r(C)p.r(G)p.r(A)p.r(G)p.r(G)p.r(A)p.r(G)p.r(A)p.r(A)p.r(G)p.m(U)p.r(A)p.r(T)p.r(T)}|RNA2{r(U)p.r(A)p.r(C)p.r(U)p.r(U)p.r(C)p.r(U)p.r(C)p.r(C)p.r(U)p.r(C)p.r(G)p.r(G)p.m(U)p.r(G)p.r(A)p.r(C)p.r(G)p.r(U)p.r(T)p.r(T)}$$$RNA1{StrandType:ss}|RNA2{StrandType:as}$”: 48%; for “RNA1{m(C)p.r(U)p.m(C)p.r(C)p.m(U)p.r(U)p.m(C)p.r(A)p.m(U)p.r(U)p.m(C)p.r(C)p.m(A)p.r(G)p.m(C)p.r(C)p.m(U)p.r(A)p.m(U)p.r(T)p.r(T)}|RNA2{r(A)p.r(U)p.r(A)p.r(G)p.r(G)p.r(C)p.r(U)p.r(G)p.r(G)p.r(A)p.r(A)p.r(U)p.r(G)p.r(A)p.r(A)p.r(G)p.r(G)p.r(A)p.r(G)p.r(T)p.r(T)}$$$RNA1{StrandType:ss}|RNA2{StrandType:as}$”: 51%.
The same measure for “RNA1{r(G)p.r(G)p.r(A)p.r(A)p.r(G)p.r(A)p.r(A)p.r(G)p.r(A)p.r(U)p.r(A)p.r(G)p.r(A)p.r(G)p.r(C)p.r(A)p.r(U)p.r(C)p.r(C)p.r(T)p.r(T)}|RNA2{r(G)p.r(G)p.r(A)p.r(U)p.r(G)p.r(C)p.r(U)p.r(C)p.[fl2r](U)p.r(A)p.r(U)p.r(C)p.r(U)p.r(U)p.r(C)p.r(U)p.r(U)p.r(C)p.r(C)p.r(T)p.r(T)}$$$RNA1{StrandType:ss}|RNA2{StrandType:as}$”: 37%; for “RNA1{[lna](T)p.r(G)p.[lna](A)p.r(G)p.[lna](A)p.r(G)p.r(A)p.r(A)p.[lna](A)p.r(G)p.r(C)p.[lna](A)p.r(C)p.[lna](A)p.r(G)p.r(A)p.[lna](A)p.r(A)p.r(A)p.[lna](T)p.[lna](T)}|RNA2{r(U)p.r(U)p.r(U)p.r(U)p.r(C)p.r(U)p.r(G)p.r(U)p.r(G)p.r(C)p.r(U)p.r(U)p.r(U)p.r(C)p.r(U)p.r(C)p.r(U)p.r(C)p.r(A)p.r(T)p.r(T)}$$$RNA1{StrandType:ss}|RNA2{StrandType:as}$”: 68%; for “RNA1{[fl2r](C)p.r(U)p.[fl2r](A)p.r(G)p.[fl2r](A)p.r(G)p.[fl2r](G)p.r(A)p.[fl2r](U)p.r(C)p.[fl2r](U)p.r(U)p.[fl2r](G)p.r(A)p.[fl2r](A)p.r(G)p.[fl2r](A)p.r(C)p.r(C)p.r(T)p.r(T)}|RNA2{r(G)p.r(G)p.r(U)p.r(C)p.r(U)p.r(U)p.r(C)p.r(A)p.r(A)p.r(G)p.r(A)p.r(U)p.r(C)p.r(C)p.r(U)p.r(C)p.r(U)p.r(A)p.r(G)p.r(T)p.r(T)}$$$RNA1{StrandType:ss}|RNA2{StrandType:as}$”: 61%.
